Reference: patent US4239901A, “Pyrazol-1-ylphenylacetic acids” (Byk Gulden Lomberg Chemische Fabrik GmbH, priority 1976, dated 1980)
Where two headings read alike, the source gives them in different places.

Legend:
in vivo = conditions: mouse, ip
[1] = system: pain reaction provoked in the rat through bending of an inflamed ankle joint; test: Analgesic effect, pain reaction provoked through bending of an inflamed ankle joint (AgNO3 inflammation); conditions: for ED25: Rattus norvegicus, po, read-out: Analgesic effect ED25 (= dose which in 25% of the animals completely suppresses the pain reaction); for Therap. Quotient LD50/ED25: Table 5, LD50 mouse i.p. / ED25 rat oral, analgesic
Procedure: The influence of the compounds which were to be tested on the pain reaction provoked in the rat through bending of an inflamed tarsal joint (AgNO3 inflammation) was determined as follows:
In imitation of HOFFMEISTER et al [Arzneim.Forsch. […] The animals are kept at 24° C. and receive as food Altromin®R and water ad libitum. […] All the positively-reacting animals are concentrated in groups of 10 animals. The compounds which are to be tested are administered orally in a liquid volume of 20 ml/kg 1 hour before the AgNO3 application; the untreated control animals receive the corresponding amount of tap water.
Within 5 hours after administration of the substance the number of reacting animals is ascertained at hourly intervals.
As measure for the analgesic effect there serves the maximum % proportion of the protected animals within 5 hours after administration of the substance [referred to the number of reacting animals of the control group (=100%)]

[2] = system: carrageenin oedema of rat hind paw; test: Inhibition of carrageenin oedema of rat hind paw; conditions: for ED40 / inhibition at 100 mg/kg: Rattus norvegicus; for ED40: po, read-out: Inhibition of carrageenin oedema of rat hind paw by 40% (=ED40) after single oral dose; for Therapeutic Quotient LD50/ED40: Table 2, LD50 mouse i.p. / ED40 rat oral; for inhibition at 100 mg/kg: read-out: oedema inhibition
Procedure: The influence of the compounds which were to be tested on carrageenin oedema of rat hind paw was determined as follows:
Female Sprague-Dawley rats (groups of, in each instance, 10 animals; weight of each animal 140-170 g) from which food (Altromin®R, water ad libitum) is withheld about 16 hours beforehand are each injected subplantarly in the right hind paw with 0.05 ml of a 1% strength carrageenin suspension 1 hour after oral administration of the compounds which are to be tested. The rats are kept at 24° C.
The determination of the paw volume of each rat (in each case, 2-3 individual measurements) is effected plethysmometrically before and 2 and 4 hours after oedema provocation.
As measure for the antiphlogistic effect there serves the average percentage oedema inhibition (i.e. the average from the measured values obtained 3 and 5 hours after administration of the substance).
The determination of the paw volume is effected plethysmometrically. Measuring principle: the liquid volume displaced by the rat paw is registered digitally via an electromechanical pressure converter (Statham P 23 V, 0-200 mm Hg).
The stated doses of the medicaments tested were administered in a liquid volume of 20 ml/kg.

[3] = system: adjuvant arthritis in the rat (Mycobacterium butyricum); test: Anti-arthritic effect (adjuvant arthritis); assay type: in vivo, rat (male Sprague-Dawley); conditions: Table 4, LD50 mouse i.p. / ED25 rat oral
Procedure: In imitation of the method described by NEWBOULD and PERRINE et al. [NEWBOULD, B. B.; Brit. […] Pharmacodyn. […] Antiphlogistic agents inhibit this swelling reaction.
Male Sprague-Dawley rats (150-190 g) are each injected intradermally into the tail root on day zero with 0.1 ml/animal of a 0.5% strength Myobact. butyrum/paraffin oil suspension. […] On the 17th day after administration of adjuvant, all positively-reacting animals (paw volume increase at least 30%) are selected and concentrated in groups of 10 animals with equal paw volume distribution.
The compounds to be tested are now administered on the following 5 days, that is to say from the 17th to the 21st day after administration of adjuvant, once daily orally in 10 ml/kg of liquid.
As measure for the anti-arthritic effect there serves the decrease of the paw swelling on the 21st day after the administration of adjuvant, referred in each case to the paw swelling of the control group (=100%); the paw volume is determined plethysmometrically.

[4] = system: granulation tissue formation in the rat; conditions: Table 3; for Therapeutic Quotient LD50/ED20: LD50 mouse i.p. / ED20 rat oral
Procedure: Test procedure for the investigation of the influence of the compounds which are to be tested on granulation tissue formation after cotton-wool implantation in the rat (so-called cotton pellet method):
Closure of the skin cut is effected by means of clips.
On seven consecutive days the compounds which are to be tested (as sodium salt in aqueous solution) or the corresponding amount (5 ml/kg/day) of tap water (=control group) are administered orally daily.
On the eighth day the animals are killed, the cotton-wool granulomata are cautiously freed without cutting, i.e. preserving the fibrous capsule, dried (15 hours at 120° C.) and weighed. By deducting the weight component of the cotton-wool pellets the amount of newly formed granulation tissue is obtained.
As measure for the anti-proliferative effect of a compound there serves the percentage lessening of the average granuloma dry weight of a treated group (=16 granulomata) compared to the control group (=100%).

mouse = conditions: for Lethal effect LD50 after single intraperitoneal administration to the mouse: Table 3, single i.p.; for LD50 after a single administration mouse: Table 4, single i.p.; for Toxicity after single intraperitoneal administration to the mouse LD50: Table 5, single i.p.; for Toxicity after single intraperitoneal administration in the mouse LD50: Table 6, single i.p.
yeast fever of the rat = test: Antipyretic effect, yeast fever of the rat; assay type: in vivo, rat (female Sprague-Dawley); conditions: read-out: Antipyretic effect ED0.75 (dose which lowers the yeast fever of the rat by 0.75° C.)
Procedure: The antipyretic effect is determined from the influence of the compounds to be tested on the yeast fever of the rat.
In female Sprague-Dawley rats (in each series of experiments, 30 rats in groups of 5 animals; animal weight 170-200 g) a hyperthermia is produced through subcutaneous injection (neck) of 20 ml/kg of a 20% strength aqueous brewer's yeast suspension (brewers' yeast "Heliosan"/Hefereformwerk Radolfzell). 24 hours after the yeast injection, the body temperature is measured rectally at hourly intervals.
After a preliminary measurement the compounds which are to be tested are administered to the animals orally in a liquid volume of 5 ml/kg; a control group receives the corresponding amount of tap water. Food (Altromin®R, water ad libitum) was withheld from the rats 18 hours beforehand. The rats are kept at about 23° C.
As measure for the antipyretic effect there serves the maximum lowering of temperature (with reference to the temperature of the preliminary measurement, i.e. immediately before administration of the substance) in the course of 4 hours. The body temperature is measured with a Iastomed H (Braun electronic).

| SMILES | LD50 (in vivo) [mg/kg] | ED25 [1] [mg/kg] | Therap. Quotient LD50/ED25 [1] | ED40 [2] [mg/kg] | Therapeutic Quotient LD50/ED40 [2] | Therapeutic Quotient LD50/ED25 [3] | Therapeutic Quotient LD50/ED20 [4] | Inhibition of granulation tissue formation after subcutaneous cotton-wool implantation by 20% (=ED20) in the rat after 7-day oral administration [4] | Lethal effect LD50 after single intraperitoneal administration to the mouse (mouse) [mg/kg i.p.] | LD50 after a single administration mouse (mouse) [mg/kg i.p.] | Toxicity after single intraperitoneal administration to the mouse LD50 (mouse) [mg/kg i.p.] | Toxicity after single intraperitoneal administration in the mouse LD50 (mouse) [mg/kg i.p.] | ED (0.75 degC) (yeast fever of the rat; Table 6, rat, oral) [mg/kg] | ED (0.75 degC) (yeast fever of the rat; po) [mg/kg] | inhibition at 100 mg/kg [2] [%] |
| --- | --- | --- | --- | --- | --- | --- | --- | --- | --- | --- | --- | --- | --- | --- | --- |
| CC(C(=O)[O-])c1cc(Cl)c(-n2cccn2)cc1Cl.[Na+] (stereo not drawn) | 1050 | 2.5 | 420 | – | – | – | – | – | – | – | – | – | – | – | – |
| CC(C(=O)O)c1ccc(-n2cc(Cl)cn2)c(Cl)c1 (stereo not drawn) [I, 2-[3-chloro-4-(4-chloropyrazol-1-yl)phenyl]-propionic acid] | 325 | 0.4 | 813 | 5 | 65 | 1625 | 108.3 | 3 mg/kg/die | 325 | 325 | 325 | 325 | 3.5 | – | – |
| O=C(O)Cc1ccc(-n2cc(Cl)cn2)cc1 [II, 4-(4-chloropyrazol-1-yl)phenylacetic acid] | 460 | – | – | 8 | 58 | – | – | – | – | – | – | – | – | – | – |
| O=C(O)Cc1ccc(-n2cc(Br)cn2)cc1 [III, 4-(4-bromopyrazol-1-yl)phenylacetic acid] | 550 | 1.2 | 458 | 4 to 5 | 122 | – | – | – | – | – | 550 | 550 | 20 | – | – |
| O=C(O)Cc1ccc(-n2cc(Cl)cn2)c(Cl)c1 [IV, 3-chloro-4-(4-chloropyrazol-1-yl)phenylacetic acid] | 460 | 2.5 | 184 | 2 | 230 | 657 | 23.0 | 20 mg/kg/die | 460 | 460 | 460 | – | – | – | – |
| CCCCC1C(=O)N(c2ccccc2)N(c2ccccc2)C1=O [IX, phenylbutazone, reference compound] | – | 2 | – | 40 | – | – | – | 100 mg/kg/die | – | – | – | – | 15 | – | – |
| CC(C(=O)O)c1ccc(-n2cc(Br)cn2)c(Cl)c1 (stereo not drawn) [V, 2-[3-chloro-4-(4-bromopyrazol-1-yl)phenyl] acid] | 325 | 0.8 | 406 | 2 | 163 | 1625 | ~ 32.5 | ~ 10 mg/kg/die | – | – | – | – | 5 | – | – |
| CC(C(=O)O)c1cc(Cl)c(-n2cc(Br)cn2)cc1Cl (stereo not drawn) [VII, 2-[2,5-dichloro-4-(4-bromopyrazol-1-yl)phenyl]propionic acid] | 285 | 1.2 | 238 | – | – | – | – | – | – | – | – | – | – | – | – |
| O=C(O)Cc1ccc(-n2cccn2)cc1 [VIII, 4-(pyrazol-1-yl)phenylacetic acid] | 1200 | – | – | 8 | 150 | – | – | – | – | – | – | 1200 | 32 | – | – |
| COc1ccc2c(c1)c(CC(=O)O)c(C)n2C(=O)c1ccc(Cl)cc1 [X, indomethacin, reference compound] | 45 | 0.3 | 150 | 4 | 11 | 450 | 12.8 | 3-5 mg/kg/die | 45 | 45 | 45 | 45 | – | 2.5 | – |
| Cn1nc(-c2ccc(CC(=O)O)cc2)cc1-c1ccccc1 [XI, 4-(1-methyl-5-phenylpyrazol-3-yl)phenylacetic acid, reference compound] | 430 | – | – | > 100 | < 4 | – | – | – | – | – | – | – | – | – | 25 |
| O=C(O)Cc1ccc(-c2cc(-c3ccccc3)n(-c3ccccc3)n2)cc1 [XII, 4-(1,5-diphenyl-pyrazol-3-yl)phenylacetic acid, reference compound] | 200 | – | – | 63 | 3 | – | – | – | – | – | – | – | – | – | – |
| CN1N=C(c2ccc(CC(=O)O)cc2)CC1c1ccccc1 (stereo not drawn) [XIII, 4-(1-methyl-5-phenyl-2-pyrazoline-3-yl)phenylacetic acid, reference compound] | – | – | – | > 100 | – | – | – | – | – | – | – | – | – | – | 25 |
